# According to the NIST ThermoML archive (doi:10.1016/j.jct.2016.07.037):
# Numbers after ± are expanded uncertainties.
# How the values were obtained:
# [1] = molar enthalpy of vaporization or sublimation; conditions: 298.15 K; Crystal; Static calorimetry
# [2] = Molar enthalpy of transition or fusion; conditions: Crystal; DSC
# [3] = Crystal; for vapor or sublimation pressure: Calculated from knudsen effusion weight loss; for Normal melting temperature: DTA
# [4] = molar heat capacity at constant pressure; conditions: 298.15 K; 101.33 kPa; Crystal; Drop calorimetry
smiles,measurement,setting,value
OCC(F)(F)C(F)(F)C(F)(F)C(F)(F)C(F)(F)C(F)(F)C(F)(F)C(F)(F)C(F)(F)C(F)(F)C(F)(F)C(F)(F)C(F)(F)F,molar enthalpy,[1],30.2 ± 0.932 kcal/mol
same,Molar enthalpy of transition or fusion,[2],9.08 ± 0.454 kcal/mol
same,vapor or sublimation pressure,[3]; 328.6 K,0.00014 ± 2.1e-05 kPa
same,vapor or sublimation pressure,[3]; 330.6 K,0.000172 ± 2.1e-05 kPa
same,vapor or sublimation pressure,[3]; 332.5 K,0.000231 ± 2.2e-05 kPa
same,vapor or sublimation pressure,[3]; 334.5 K,0.000302 ± 2.3e-05 kPa
same,vapor or sublimation pressure,[3]; 336.5 K,0.000391 ± 2.4e-05 kPa
same,vapor or sublimation pressure,[3]; 338.4 K,0.000502 ± 2.7e-05 kPa
same,vapor or sublimation pressure,[3]; 340.4 K,0.000642 ± 3e-05 kPa
same,Normal melting temperature,[3],139.2 ± 0.5 °C
same,molar heat capacity at constant pressure,[4],725.3 ± 17 J/K/mol
"OCC(F)(F)C(F)(F)C(F)(F)C(F)(F)C(F)(F)C(F)(F)C(F)(F)C(F)(F)C(F)(F)F [1H,1H-perfluoro-1-decanol]",molar heat capacity at constant pressure,[4],563.9 ± 13 J/K/mol
"OCC(F)(F)C(F)(F)C(F)(F)C(F)(F)C(F)(F)C(F)(F)C(F)(F)C(F)(F)C(F)(F)C(F)(F)C(F)(F)F [1H,1H-perfluoro-1-dodecanol]",molar enthalpy,[1],26.4 ± 0.86 kcal/mol
same,Molar enthalpy of transition or fusion,[2],5.88 ± 0.311 kcal/mol
same,vapor or sublimation pressure,[3]; 303.6 K,6.95e-05 ± 2e-05 kPa
same,vapor or sublimation pressure,[3]; 306.1 K,0.0001 ± 2e-05 kPa
same,vapor or sublimation pressure,[3]; 308.6 K,0.000143 ± 2.1e-05 kPa
same,vapor or sublimation pressure,[3]; 311 K,0.000196 ± 2.1e-05 kPa
same,vapor or sublimation pressure,[3]; 313.5 K,0.000273 ± 2.2e-05 kPa
same,vapor or sublimation pressure,[3]; 316 K,0.000376 ± 2.4e-05 kPa
same,vapor or sublimation pressure,[3]; 318.5 K,0.000517 ± 2.7e-05 kPa
same,vapor or sublimation pressure,[3]; 321 K,0.000727 ± 3.3e-05 kPa
same,vapor or sublimation pressure,[3]; 323.5 K,0.001007 ± 7.8e-05 kPa
same,Normal melting temperature,[3],114.2 ± 1.3 °C
same,molar heat capacity at constant pressure,[4],645.2 ± 15 J/K/mol
"OCC(F)(F)C(F)(F)C(F)(F)C(F)(F)C(F)(F)C(F)(F)C(F)(F)C(F)(F)C(F)(F)C(F)(F)F [1H,1H-perfluoroundecan-1-ol]",molar heat capacity at constant pressure,[4],602.4 ± 14 J/K/mol
"OCC(F)(F)C(F)(F)C(F)(F)C(F)(F)C(F)(F)C(F)(F)C(F)(F)C(F)(F)F [2,2,3,3,4,4,5,5,6,6,7,7,8,8,9,9,9-heptadecafluoro-1-nonanol]",molar heat capacity at constant pressure,[4],515.9 ± 12 J/K/mol
